Values joined by “and” are separate entries in the source; they are usually repeats but may differ in a detail not shown here. Equal values may be shown once.
What was measured:
[1] = Animal trial: body weight, feed and water consumption, feces; type: in vivo, rat; settings: for Body weight: group average
Experimental: (§1) During the adaptation period, health was monitored by weighing and observing the animals. […] After 10 days of cholesterol-containing feed, all animals were in a state of hypercholesterolemia. One group served as the control, whereas group II, III, and IV received 0.5%, 1%, and 2% of KHCA (produced via the method of Example 2), respectively, in addition to the cholesterol diet. The salt solutions were given orally in 2 ml water daily. Group I received 2 ml of distilled water per 200 g body weight; group II received 1.03 mg KHCA in 2 ml water per 200 body weight; group III 2.06 mg; and group IV 4.12 mg. These treatments were continued for 2 weeks.

[2] = system: male rats of Wistar strain; experiment: Animal trial: serum total cholesterol, HDL and LDL in rats on cholesterol diet; type: in vivo, rat; settings: for total cholesterol reduction (lowering) in comparison to the starting condition: 2 weeks; for HDL, Average / LDL, Average / Total cholesterol, Average: group average; for HDL / LDL / Total cholesterol: individual rat
Experimental: as §1
The animals were fasted for 12 hours prior to blood withdrawal. Rats were weighed and the 3-4 ml blood was obtained by amputating 2-3 cm of the tail. The blood was collected, let stand at room temperature for 30 minutes, and then centrifuged for 10-15 minutes. The serum was separated and refrigerated at 4° C. until ready for cholesterol analysis. Cholesterol level of the serum was analyzed using diagnostic kit (Boehringer Mannheim). Total cholesterol, LDL, and HDL were determined through spectrophotometric instrument (Hitachi). These are protocols frequently used in clinical laboratories.
Student's T-test was used to evaluate whether there was a difference between the control and each of the treated groups by comparing the data before and after the treatment. One-way variance analysis was performed to see if there was a statistically significant difference among the groups.

rats = settings: physiologic doses; cited from earlier work
[3] = animal model, U.S. Pat. No. 6,221,901; cited from earlier work
[4] = 2 ml of 2 percent daily for two weeks
[5] = KHCA administration versus control group
[6] = 0.5% KHCA (1.03 mg/day oral, 2 weeks), End Day 24
[7] = 0.5% KHCA group, Hypercholesterolemia Day 10 (before treatment)
[8] = 0.5% KHCA group, Start (before diet and treatment)
[9] = 1.0% KHCA (2.06 mg/day oral, 2 weeks), End Day 24
[10] = 1.0% KHCA group, Hypercholesterolemia Day 10 (before treatment)
[11] = 1.0% KHCA group, Start (before diet and treatment)
[12] = 2.0% KHCA (4.12 mg/day oral, 2 weeks), End Day 24
[13] = 2.0% KHCA group, Hypercholesterolemia Day 10 (before treatment)
[14] = 2.0% KHCA group, Start (before diet and treatment)
[15] = 2 ml of 2 percent daily, value before the two weeks treatment
[16] = KHCA 0.5% group, Hyper-cholesterolemia (Day 10), before treatment
[17] = KHCA 0.5% group, Start (before diet and treatment)
[18] = KHCA 0.5%, 2 weeks oral, End (Day 24)
[19] = KHCA 1.0% group, Hyper-cholesterolemia (Day 10), before treatment
[20] = KHCA 1.0% group, Start (before diet and treatment)
[21] = KHCA 1.0%, 2 weeks oral, End (Day 24)
[22] = KHCA 2.0% group, Hyper-cholesterolemia (Day 10), before treatment
[23] = KHCA 2.0% group, Start (before diet and treatment)
[24] = KHCA 2.0%, 2 weeks oral, End (Day 24)

O=C([O-])CC(O)(C(=O)[O-])C(O)C(=O)[O-].[K+].[K+].[K+] (centres unmarked) [KHCA, Potassium HCA Salt]
Body weight ([1]; 0.5% KHCA (1.03 mg/day oral), At Hypercholesterolemia, before treatment): 202.4 grams | Body weight ([1]; 0.5% KHCA (1.03 mg/day oral), End of Experiment, after 2 weeks treatment): 199.5 grams | Body weight ([1]; 0.5% KHCA (1.03 mg/day oral), Start of Experiment, before cholesterol diet and treatment): 162.8 grams | Body weight ([1]; 1.0% KHCA (2.06 mg/day oral), At Hypercholesterolemia, before treatment): 195.0 grams | Body weight ([1]; 1.0% KHCA (2.06 mg/day oral), End of Experiment, after 2 weeks treatment): 193.2 grams | Body weight ([1]; 1.0% KHCA (2.06 mg/day oral), Start of Experiment, before cholesterol diet and treatment): 157.7 grams | Body weight ([1]; 2.0% KHCA (4.12 mg/day oral), At Hypercholesterolemia, before treatment): 192.7 grams | Body weight ([1]; 2.0% KHCA (4.12 mg/day oral), End of Experiment, after 2 weeks treatment): 183.7 grams | Body weight ([1]; 2.0% KHCA (4.12 mg/day oral), Start of Experiment, before cholesterol diet and treatment): 166.9 grams | effect on body weight [1, 4]: reduced body weight | feces consistency [1, 5]: softer | feed consumption [1, 5]: lower feed consumption | total cholesterol reduction (lowering) in comparison to the starting condition ([2]; 0.5% K-HCA): 1.6 mg·dL | HDL, Average [2, 6]: 49.2 mg/dL | LDL, Average [2, 6]: 64.6 mg/dL | Total cholesterol, Average [2, 6]: 79.2 mg/dL | HDL [2, 6]: 40 mg/dL and 59 mg/dL and 43 mg/dL and 53 mg/dL and 51 mg/dL | LDL [2, 6]: 59 mg/dL and 77 mg/dL and 71 mg/dL and 60 mg/dL and 56 mg/dL | Total cholesterol [2, 6]: 82 mg/dL and 80 mg/dL and 76 mg/dL and 79 mg/dL (2×) | HDL, Average [2, 7]: 31 mg/dL | LDL, Average [2, 7]: 63.2 mg/dL | Total cholesterol, Average [2, 7]: 81 mg/dL | HDL [2, 7]: 27 mg/dL and 28 mg/dL and 39 mg/dL and 31 mg/dL and 30 mg/dL | LDL [2, 7]: 60 mg/dL (2×) and 70 mg/dL and 67 mg/dL and 59 mg/dL | Total cholesterol [2, 7]: 83 mg/dL and 84 mg/dL and 76 mg/dL and 80 mg/dL and 82 mg/dL | HDL, Average [2, 8]: 39 mg/dL | LDL, Average [2, 8]: 28.8 mg/dL | Total cholesterol, Average [2, 8]: 72.6 mg/dL | HDL [2, 8]: 37 mg/dL and 40 mg/dL and 41 mg/dL and 39 mg/dL and 38 mg/dL | LDL [2, 8]: 31 mg/dL and 28 mg/dL and 33 mg/dL and 27 mg/dL and 25 mg/dL | Total cholesterol [2, 8]: 74 mg/dL and 73 mg/dL and 69 mg/dL and 72 mg/dL and 75 mg/dL | HDL, Average [2, 9]: 53 mg/dL | LDL, Average [2, 9]: 58.2 mg/dL | Total cholesterol, Average [2, 9]: 71 mg/dL | HDL [2, 9]: 58 mg/dL and 60 mg/dL and 49 mg/dL and 46 mg/dL and 52 mg/dL | LDL [2, 9]: 69 mg/dL and 51 mg/dL and 48 mg/dL and 60 mg/dL and 63 mg/dL | Total cholesterol [2, 9]: 73 mg/dL and 71 mg/dL and 75 mg/dL and 69 mg/dL and 67 mg/dL | HDL, Average [2, 10]: 31.8 mg/dL | LDL, Average [2, 10]: 60.4 mg/dL | Total cholesterol, Average [2, 10]: 79.6 mg/dL | HDL [2, 10]: 28 mg/dL and 37 mg/dL (2×) and 30 mg/dL and 27 mg/dL | LDL [2, 10]: 67 mg/dL and 59 mg/dL and 54 mg/dL and 60 mg/dL and 62 mg/dL | Total cholesterol [2, 10]: 75 mg/dL and 82 mg/dL and 84 mg/dL and 80 mg/dL and 77 mg/dL | HDL, Average [2, 11]: 39 mg/dL | LDL, Average [2, 11]: 29 mg/dL | Total cholesterol, Average [2, 11]: 72.6 mg/dL | HDL [2, 11]: 36 mg/dL and 40 mg/dL and 43 mg/dL and 39 mg/dL and 37 mg/dL | LDL [2, 11]: 28 mg/dL and 29 mg/dL and 33 mg/dL and 30 mg/dL and 25 mg/dL | Total cholesterol [2, 11]: 69 mg/dL and 74 mg/dL and 72 mg/dL and 75 mg/dL and 73 mg/dL | total cholesterol reduction (lowering) in comparison to the starting condition ([2]; 1.0% KHCA): 2.06 mg·dL | change of HDL concentration in blood serum ([2]; 2.0% (4.12 mg) KHCA daily, control group decreased): increased | total cholesterol reduction (lowering) in comparison to the starting condition ([2]; 2.0% KHCA (4.12 mg daily)): 12.2 mg·dL | HDL, Average [2, 12]: 63.4 mg/dL | LDL, Average [2, 12]: 50 mg/dL | Total cholesterol, Average [2, 12]: 61.2 mg/dL | HDL [2, 12]: 64 mg/dL and 61 mg/dL and 67 mg/dL and 59 mg/dL and 66 mg/dL | LDL [2, 12]: 61 mg/dL and 46 mg/dL and 50 mg/dL and 44 mg/dL and 49 mg/dL | Total cholesterol [2, 12]: 59 mg/dL and 66 mg/dL and 52 mg/dL and 58 mg/dL and 71 mg/dL | HDL, Average [2, 13]: 34.6 mg/dL | LDL, Average [2, 13]: 63.2 mg/dL | Total cholesterol, Average [2, 13]: 82 mg/dL | HDL [2, 13]: 31 mg/dL and 37 mg/dL and 40 mg/dL and 33 mg/dL and 32 mg/dL | LDL [2, 13]: 69 mg/dL and 61 mg/dL and 59 mg/dL and 60 mg/dL and 67 mg/dL | Total cholesterol [2, 13]: 83 mg/dL and 85 mg/dL and 81 mg/dL and 79 mg/dL and 82 mg/dL | HDL, Average [2, 14]: 38.8 mg/dL | LDL, Average [2, 14]: 29.8 mg/dL | Total cholesterol, Average [2, 14]: 73.4 mg/dL | HDL [2, 14]: 38 mg/dL and 40 mg/dL and 41 mg/dL and 36 mg/dL and 39 mg/dL | LDL [2, 14]: 31 mg/dL and 29 mg/dL and 26 mg/dL and 33 mg/dL and 30 mg/dL | Total cholesterol [2, 14]: 75 mg/dL and 70 mg/dL and 72 mg/dL and 73 mg/dL and 77 mg/dL | HDL level, after treatment [2, 4]: 63 mg/dL | serum cholesterol LDL level, after treatment [2, 4]: 50 mg·dL | HDL level, before treatment [2, 15]: 35 mg/dL | serum cholesterol LDL level, before treatment [2, 15]: 63 mg/dL | LDL/HDL Ratio [2, 16]: 2.04 | Total Cholesterol/HDL [2, 16]: 2.61 | LDL/HDL Ratio [2, 17]: 0.74 | Total Cholesterol/HDL [2, 17]: 1.86 | LDL/HDL Ratio [2, 18]: 1.31 | Total Cholesterol/HDL [2, 18]: 1.61 | LDL/HDL Ratio [2, 19]: 1.9 | Total Cholesterol/HDL [2, 19]: 2.50 | LDL/HDL Ratio [2, 20]: 0.74 | Total Cholesterol/HDL [2, 20]: 1.86 | LDL/HDL Ratio [2, 21]: 1.1 | Total Cholesterol/HDL [2, 21]: 1.34 | LDL/HDL Ratio [2, 22]: 1.83 | Total Cholesterol/HDL [2, 22]: 2.36 | LDL/HDL Ratio [2, 23]: 0.77 | Total Cholesterol/HDL [2, 23]: 1.89 | LDL/HDL Ratio [2, 24]: 0.79 | Total Cholesterol/HDL [2, 24]: 0.97 | benefits with regard to insulin metabolism and blood pressure regulation (rats): significant results

Magnesium HCA
increase in HDL [3]: 8.5%

O=C([O-])CC(O)(C(=O)[O-])C(O)C(=O)[O-].[K+].[Mg+2] (centres unmarked) [potassium-magnesium HCA, Potassium-Magnesium Hydroxycitrate Salt]
benefits with regard to insulin metabolism and blood pressure regulation (rats): significant results

Reference: patent US20080293815A1, “HCA FOR IMPROVED HDL SERUM LIPIDS PROFILE” (Glykon Technologies Group, LLC, priority 2006, published 2008)
